Data taken from patent US20090105562A1, “SYSTEM AND METHODS FOR SCREENING OR ANALYZING TARGETS” (TAIPEI VETERANS GENERAL HOSPITAL, priority 2007, published 2009).

System: NSCs
Test: Triple-staining immunofluorescent assay of NSC differentiation into serotoninergic neurons
Format: cell-based, rat
Procedure: All animals used were treated in accordance with the Animal Care and Use Committee guideline at Taipei Veterans General Hospital. The protocol of the present study was also approved by the committee. Adult Sprague-Dawley (SD) rats (8 weeks old, 250 g) were anesthetized with intraperitoneal phenobarbital (Sigma, USA), and the location of their brains was mapped. Then, the brain was surgically separated from the hippocampus region. In brief, tissues from the hippocampus of adult rats were dissociated and incubated in Hank's balanced salt solution (HBSS) containing collagenase (78 units/ml) and hyaluronidase (38 units/ml) for 10 minutes at 37° C. The tissues were then mechanically dissected and placed in a trypsin solution (1.33 mg/ml) at 37° C. for another 10 minutes. Dissociated cells were then centrifuged at […] for 5 minutes. Then the enzyme solution was removed and replaced with serum-free culture media composed of Dulbecco Modified Eagle Medium (DMEM) and F-12 nutrient mixture (1:1) including insulin (25 μg/mL), transferrin (100 μg/mL), progesterone (20 nM), putrescine (60 μM), sodium selenite (30 nM), human recombinant epidermal growth factor (EGF) 20 ng/mL, and fibroblast growth factor-basic (bFGF) (20 ng/mL) (R&D Systems, Minneapolis, Minn., USA). Viable cells were counted by trypan blue exclusion and plated as 5000 cells/200 μL per well in 96-well plates (Corning Inc, Acton, Mass., USA) with no substrate pretreatment. The IM was purchased from Sigma Chem. Co., St Louis, Mo., USA. The 0.1% dimethyl sulfoxide (DMSO) (Sigma Chem. Co., St Louis, Mo., USA) was used as a vehicle control in all procedures and studies. For differentiation protocol, the neurosphere NSCs were plated on poly-L-ornithine-coated (15 μg/mL) glass coverslips in individual wells of 24-well plates (1.0 mL/well) in DMEM/F-12 medium containing 2% fetal calf serum (FCS) (Gibcol-BRL, Gaitherburg, Md., USA) and withdrawing EGF and bFGF At the time of NSCs seeding, vehicle control or IM treatment was concurrently added.
An avidin-biotin complex method was used for the immunohistochemical staining in the differentiated NSCs. Following washes with the 3% hydrogen peroxide, sodium azide and antigens were retrieved using a microwave. […] Immunoreactive signals were detected with a mixture of biotinylated rabbit anti-mouse IgG and Fluoresave (Calbiochem, La Jolla, Calif., USA) under confocal microscopy (Olympus, FV300). Each individual sample was analyzed in triplicate. […] The percentage of TUNEL-positive cells was measured by the average of 6 different areas as compared to the total cell number in the same section slide (under a×200 power field of a light microscope).

[1] = Day 7 culture of IM-treated vs non IM-treated NSCs, p<0.05
[2] = agent added, Day 7 culture of IM-treated NSCs

| SMILES | percentage of MAP-2-positive cells [1] | percentage of serotonin (5-HT)-positive cells [1] | percentage of MAP-2-positive cells in IM-treated NSCs [2] | percentage of serotonin (5-HT)-positive cells in IM-treated NSCs [2] |
| --- | --- | --- | --- | --- |
| CN(C)CCCN1c2ccccc2CCc2ccccc21 [IM, imipramine] | significantly increased | significantly increased |  |  |
| N#CC(=C(/N)Sc1ccccc1N)/C(C#N)=C(\N)Sc1ccccc1N [U0126] |  |  | significantly decrease | significantly decrease |
